From US20250188085A1, “COMPOSITIONS AND METHODS FOR INHIBITION OF RAS” (THERAS, INC., priority 2022, published 2025)
Read-outs that look alike come from different tables or passages of the source.

Legend:
[1] = target: T1, GppNHp-loaded KRAS4b (amino acids 1-169) G12C/C118S protein (Homo sapiens, UniProt P01116, C118S/G12C); test: Covalent cysteine 12 modification by MALDI-TOF MS, GppNHp-loaded KRAS G12C; type: binding; details: 15 minutes reaction time point
T1 construct: KRAS4b (amino acids 1-169) G12C/C118S protein; made in house
How it was run: (§1)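 KRAS4b 1-169 G12C/C118S loaded with GDP, GppNHp or GTP was used at 1 μM in 20 mM HEPES, 150 mM NaCl, 1 mM MgCl2, pH 7.3, and incubated with compound (5 mM DMSO stock) at room temperature in the dark. % modification at 15 min is adduct peak height over total protein peak heights by linear-mode MALDI-TOF.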

[2] = target: T2, GTP-loaded KRAS4b (amino acids 1-169) G12C/C118S protein (Homo sapiens, UniProt P01116, C118S/G12C); test: Covalent cysteine 12 modification by MALDI-TOF MS, GTP-loaded KRAS G12C; type: binding; details: 15 minutes reaction time point
T2 construct: KRAS4b (amino acids 1-169) G12C/C118S protein; made in house
How it was run: as §1

[3] = target: T3, GDP-loaded KRAS4b (amino acids 1-169) G12C/C118S protein (Homo sapiens, UniProt P01116, C118S/G12C); test: Covalent cysteine 12 modification by MALDI-TOF MS, GDP-loaded KRAS G12C; type: binding; details: 15 minutes reaction time point
T3 construct: KRAS4b (amino acids 1-169) G12C/C118S protein; made in house
How it was run: as §1

[4] = target: T4, Avi-KRAS G12C (1-169) GppNHp/RAF1 RBD-3×FLAG (52-151) (Homo sapiens, UniProt P01116, G12C); test: Raf1 RBD-KRAS G12C-GppNHp disruption (protein:protein interaction HTRF assay); type: biochemical
T4 construct: Avi-KRAS G12C (1-169) GppNHp/RAF1 RBD-3×FLAG (52-151)
How it was run: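 HTRF measuring disruption of 50 nM Avi-KRAS G12C (1-169) loaded with GppNHp binding RAF1 RBD-3×FLAG (52-151), in pH 7.5 Tris buffer with 5 mM MgCl2, 0.1% BSA, 10% DMSO. KRAS preincubated with compound 1 h, then RBD 1 h, then detection reagents 1 h, all at room temperature. Compound titration 30-0.02 μM; activity expressed as percent of DMSO control.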

pERK in NCI-H358 cells = test: Cell-based pERK HTRF assay; details: 30 min incubation, read-out: pERK in NCI-H358 cell inhibition IC50
How it was run: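 Cells seeded at 4×10^4/well in RPMI with 10% FBS, then next day treated for 30 min with a 9-point, 3-fold series from 75 μM top concentration at 0.25% DMSO. Lysates were read for pERK by HTRF (d2/Eu cryptate antibodies) after 4–24 h at room temperature, emission at 615 nm.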

SMILES | GppNHp-KRAS G12C percent of modification [1] | GTP-KRAS G12C percent of modification [2] | GDP-KRAS G12C percent of modification [3] | IC50 [4] [µM] | IC50 (pERK in NCI-H358 cells; Homo sapiens, NCI-H358, 0.5 h) [µM] | IC50 (pERK in NCI-H358 cells) [µM]
C=CC(=O)N1CC[C@@H](Oc2nc(OC[C@@]34CCCN3C[C@H](F)C4)nc3cc(-c4ccc(F)c5sc(N)c(C#N)c45)c(C(F)(F)F)nc23)[C@H]1C [Compound 91] | B (50≤percent of modification <70%) | C (10%≤modification <50%) | A (percent of modification ≥70%) | ≤ 0.5 | ≤ 0.1 | 
C=CC(=O)N1CC[C@@H](Oc2nc(OC[C@@]34CCCN3C[C@H](F)C4)nc3c(Cl)c(-c4ccc(F)c5sc(N)nc45)c(C(F)(F)F)cc23)C1 (atropisomer, axis not shown) [Compound 44] | A (percent of modification ≥70%) | B (50≤percent of modification <70%) | A (percent of modification ≥70%) | ≤ 0.5 | ≤ 0.1 | 
C=CC(=O)N1CC[C@@H](Oc2nc(OC[C@@]34CCCN3C[C@H](F)C4)nc3c(F)c(-c4ccc(F)c5sc(N)c(C#N)c45)c(C(F)(F)F)cc23)[C@@H]1C [Compound 123] | C (10%≤modification <50%) | D (percent of modification <10%) | B (50≤percent of modification <70%) | ≤ 0.5 | ≤ 0.1 | 
C=CC(=O)N1CC[C@@H](Oc2nc(OC[C@@]34CCCN3C[C@H](F)C4)nc3c(F)c(-c4ccc(F)c5sc(N)c(C#N)c45)ccc23)[C@@H]1C [Compound 118] | D (percent of modification <10%) | D (percent of modification <10%) | A (percent of modification ≥70%) | 0.5 to 5 | > 1 | 
C=CC(=O)N1CC[C@@H](Oc2nc(OC[C@@]34CCCN3C[C@H](F)C4)nc3c(F)c(-c4ccc(F)c5sc(N)c(C#N)c45)c(C(F)(F)F)cc23)[C@H]1CF [Compound 71] | C (10%≤modification <50%) | D (percent of modification <10%) | C (10%≤modification <50%) | ≤ 0.5 | ≤ 0.1 | 
C=CC(=O)N1CC[C@@H](Oc2nc(OC[C@@]34CCCN3C[C@H](F)C4)nc3c(F)c(-c4ccc(F)c5sc(N)c(C#N)c45)ccc23)C1 [Compound 51] | A (percent of modification ≥70%) | A (percent of modification ≥70%) | A (percent of modification ≥70%) | ≤ 0.5 | ≤ 0.1 | 
C=CC(=O)N1CC[C@@H](Oc2nc(OC[C@@]34CCCN3C[C@H](F)C4)nc3c(F)c(-c4ccc(F)c5sc(N)c(C#N)c45)c(C(F)(F)F)cc23)[C@H]1C (single isomer, unassigned) [Compound 63] | A (percent of modification ≥70%) | A (percent of modification ≥70%) | A (percent of modification ≥70%) | ≤ 0.5 |  | ≤ 0.1
C=CC(=O)N1CC[C@@H](Oc2nc(OC[C@@]34CCCN3C[C@H](F)C4)nc3c(F)c(-c4ccc(F)c5sc(N)c(C#N)c45)c(Cl)cc23)[C@@H]1CC [Compound 117] | D (percent of modification <10%) | D (percent of modification <10%) | C (10%≤modification <50%) | > 20 | > 1 | 
C=CC(=O)N1CC[C@@H](Oc2nc(OC[C@@]34CCCN3C[C@H](F)C4)nc3c(F)c(-c4ccc(F)c5sc(N)c(C#N)c45)c(C(F)(F)F)cc23)[C@@H]1COC [Compound 127] | D (percent of modification <10%) | D (percent of modification <10%) | B (50≤percent of modification <70%) | ≤ 0.5 | 0.1 to 1 | 
C=CC(=O)N1C[C@H](Oc2nc(OC[C@@]34CCCN3C[C@H](F)C4)nc3c(F)c(-c4ccc(F)c5sc(N)c(C#N)c45)c(C(F)(F)F)cc23)C[C@H]1COC (atropisomer, axis not shown) [Compound 90] | D (percent of modification <10%) | D (percent of modification <10%) | D (percent of modification <10%) | > 20 |  | > 1

Continued, values first:

GppNHp-KRAS G12C percent of modification [1] | GTP-KRAS G12C percent of modification [2] | GDP-KRAS G12C percent of modification [3] | IC50 [4] [µM] | IC50 (pERK in NCI-H358 cells; Homo sapiens, NCI-H358, 0.5 h) [µM] | IC50 (pERK in NCI-H358 cells) [µM] | SMILES
B (50≤percent of modification <70%) | B (50≤percent of modification <70%) | B (50≤percent of modification <70%) | ≤ 0.5 | ≤ 0.1 |  | C=CC(=O)N1CC[C@@H](Oc2nc(OC[C@@]34CCCN3C[C@H](OC)C4)nc3c(F)c(-c4ccc(F)c5sc(N)c(C#N)c45)c(C(F)(F)F)cc23)[C@H]1C [Compound 99]
B (50≤percent of modification <70%) | B (50≤percent of modification <70%) | B (50≤percent of modification <70%) | ≤ 0.5 | ≤ 0.1 |  | C=CC(=O)N1CC[C@@H](Oc2nc(OC[C@@]34CCCN3C[C@H](F)C4)nc3c(F)c(-c4ccc(F)c5sc(N)c(C#N)c45)c(C(F)(F)F)cc23)C1 [Compound 46]
D (percent of modification <10%) | D (percent of modification <10%) | C (10%≤modification <50%) | > 20 | > 1 |  | C=CC(=O)N1CC[C@@H](Oc2nc(OC[C@@]34CCCN3C[C@H](F)C4)nc3cc(-c4ccc(F)c5sc(N)c(C#N)c45)c(F)cc23)[C@@H]1COC [Compound 122]
B (50≤percent of modification <70%) | C (10%≤modification <50%) | A (percent of modification ≥70%) | ≤ 0.5 | ≤ 0.1 |  | C=CC(=O)N1CC[C@@H](Oc2nc(OC[C@@]34CCCN3C[C@H](F)C4)nc3cc(-c4ccc(F)c5sc(N)nc45)c(C(F)(F)F)cc23)[C@H]1C [Compound 60]
A (percent of modification ≥70%) | A (percent of modification ≥70%) | A (percent of modification ≥70%) | ≤ 0.5 | ≤ 0.1 |  | C=CC(=O)N1CC[C@@H](Oc2nc(OC[C@@]34CCCN3C[C@H](F)C4)nc3c(F)c(-c4ccc(F)c5sc(N)c(C#N)c45)ccc23)[C@H]1COC [Compound 97]
A (percent of modification ≥70%) | A (percent of modification ≥70%) | A (percent of modification ≥70%) | ≤ 0.5 | ≤ 0.1 |  | C=CC(=O)N1CC[C@@H](Oc2nc(OC[C@@]34CCCN3C[C@H](F)C4)nc3c(F)c(-c4ccc(F)c5sc(N)c(C#N)c45)ncc23)[C@H]1C [Compound 73, 4-(4-(((2R,3R)-1-acryloyl-2-methylpyrrolidin-3-yl)oxy)-8-fluoro-2-(((2R,7aS)-2-fluorotetrahydro-1H-pyrrolizin-7a (5H)-yl)methoxy)pyrido[4,3-d]pyrimidin-7-yl)-2-amino-7-fluorobenzo[b]thiophene-3-carbonitrile]
